Assay [1] has as its target T1, stachydrine demethylase (Sinorhizobium meliloti, UniProt Q92ZP9).
T1 construct: gene stc2
The following applies: 2.3 A; pH 7 HEPES; 25 mM hexaamine CoCl2.

The target in assay [2] is T2, lysozyme (Gallus gallus, UniProt P00698).
T2 construct: gene LYZ
In words: X-ray structure of co-crystal (fragment screen). It is filed as binding. The settings on record: pH 4.6 acetate, 4% NaCl.

Assay [3] concerns the target T1, stachydrine demethylase. In words: X-ray structure of co-crystal; demethylated product seen. In kind it is binding. The following applies: 2.3 A; pH 7 HEPES; 25 mM hexaamine CoCl2; N-methyl group cleaved on X-ray exposure, only L-proline in the density.
Assay [4] deals with T3, trypsin (Bos taurus, UniProt P00760).
T3 construct: gene PRSS1
T3 sequence (P00760 24-246): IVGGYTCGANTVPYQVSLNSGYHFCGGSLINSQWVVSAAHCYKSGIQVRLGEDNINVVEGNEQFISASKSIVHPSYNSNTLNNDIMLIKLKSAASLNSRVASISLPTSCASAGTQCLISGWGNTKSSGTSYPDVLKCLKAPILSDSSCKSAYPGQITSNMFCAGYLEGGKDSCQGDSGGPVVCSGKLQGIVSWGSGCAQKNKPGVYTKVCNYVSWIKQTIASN
Nature of the assay: X-ray structure of co-crystal (fragment screen). In kind it is binding. The settings on record: pH 7 HEPES, 10 mM CaCl2.

In the case of `O=C(O)[C@@H]1CCCN1` [L-proline], the “X-ray structure of co-crystal” value in assay [1] is listed as “When L-proline was co-crystallized with stachydrine demethylase, the L-proline was observed in the electron density”.

`CC(=O)N[C@H]1C(O)O[C@H](CO)[C@@H](O)[C@@H]1O` (stereo partly drawn) [N-acetylglucosamine]: the “X-ray structure of co-crystal (fragment screen)” value in assay [2] is listed as “The known N-acetylglucosamine ligand was easily identified in the electron density”.

In the case of `CN1CCC[C@H]1C(=O)O` [N-methylproline], the “X-ray structure of co-crystal; demethylated product seen” value in assay [3] was “exposure to X-rays quickly induces enzymatic cleavage of the N-methyl group, leaving behind L-proline”.

For the compound `N=C(N)c1ccccc1` [benzamidine], the “X-ray structure of co-crystal (fragment screen)” value was “the known benzamidine ligand in the best diffracting no-hit screen” in assay [4] (known control) and “Benzamidine was also observed to bind to lysozyme, a previously unreported result (PDB entry 4n8z)” in assay [2]. Regarding `c1c[nH]cn1` [imidazole], the “X-ray structure of co-crystal (fragment screen)” value in assay [4] (10 mg/ml benzamidine present, allosteric site distant from the active site) is “imidazole (a previously unreported allosteric binding mode that is distant from the active site; PDB entry 4ncy)”.

The values are drawn from article PMC4014116, “Hitting the target: fragment screening with acoustic in situ co-crystallization of proteins plus fragment libraries on pin-mounted data-collection micromeshes” (Acta Crystallographica Section D: Biological Crystallography, 2014).
